Test results reported in patent US9790136B2, “Urea and nitrogen stabilizer compositions and methods and systems of making and using thereof” (Koch Agronomic Services, LLC, priority 2013, dated 2017).
Read-outs that look alike come from different tables or passages of the source.

Legend:
[1] = cited from earlier work
[2] = Crush strength of urea particles; format: physicochemical; conditions: average strength of 20 particles
Method: The crush strength was determined by subjecting individual particles of urea to a measured force, applied by means of a metal plunger. The force, at which the particle fractures, was taken as a measure of strength. The average strength of 20 particles were reported.

[3] = SGN of granular product (product specifications); format: physicochemical; conditions: average
[4] = Water, HCHO and biuret content of urea compositions by IR and/or HPLC; format: physicochemical; conditions: average
Method: The water, HCHO, NBPT and biuret content of the urea compositions were analyzed by IR and/or HPLC. All concentrations were calculated in μg/ml unless otherwise noted. HPLC samples were prepared by weighing approximately 0.4 grams of sample into a 10-20 mL disposable glass vial or volumetric flask. For high concentration samples (>30% inhibitor), approximately 0.025 grams of sample was weighed into a 100 mL volumetric flask. For lower concentration samples, 10 mL of water was added and the sample was shaken until the sample was dissolved. For higher concentration samples, the sample was diluted to the 100 mL mark with diluent. A disposable dropper was used to transfer the sample into an autosampler vial. The sample was analyzed in duplicate including a diluent blank using the conditions below. The evaluation was carried out by the method of external standard with the calibration using a calibration line. A minimum of 2 sets of standards as set out below were run before and after unknowns. RSD is the relative deviation in rel. %, calculated from three repeats of sampling and two repeats of analysis of each sample (see EP 15688). […]
The chromatogram was evaluated at the wavelength of 214 nm. […]

Crush Strength [2] [lbs] | SGN [3] | % HCHO [4] [%] | Structure (SMILES) | half-life of NBPT ([1]; NBPT injected into the melted urea before granulation) | half-life of NBPT ([1]; surface-treated urea)
 |  |  | CCCCNP(N)(N)=S [NBPT, N-(n-butyl) thiophosphoric triamide] | more than one | about six
7.5 | 277.0 | <0.5 | NC(N)=O [Urea] |  | 
